One data set deals with P-388 leukemia cells. Briefly: Antitumor activity: P-388 leukemia cells inoculated intraperitoneally, drug administered intravenously, BDF1 mice. In kind it is in vivo. As to conditions: Mus musculus, P388, iv, BDF1 mice, P-388 i.p., read-out: T/C (%) of MST; for response vs control in vivo at 40 mg/kg: dose c: 40 mg/kg × 3, i.v. on days 1, 5 and 9; for response vs control in vivo at 80 mg/kg: dose f: 80 mg/kg × 3, i.v. on days 1, 5 and 9. Put shortly: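 Drug dosing was intravenous on the first, fifth and ninth days after intraperitoneal inoculation of P-388 leukemia cells (1×10^6 per mouse) into BDF1 mice. Vehicles were physiological saline alone, or saline with small amounts of sodium carboxymethyl cellulose or Tween-80.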

Data set [1] is described as follows: Acute toxicity, intravenous (once), ddY mice. The format is in vivo. As to conditions: mouse, in vivo, iv, formulated per Preparation Example. The text has this: In Table 7 are shown acute toxicity values (LD50, mg/kg) in ddY mice in the case of intravenously administering (once) each of the compounds of this invention in the form of preparations shown in the Preparation Examples shown in Table 7.

The LD50 is the dose at which mortality reaches 50%. The low end stands for a more toxic substance, the high end for a less toxic substance. For `COc1cccc(C(=O)Oc2c3cccc(O[C@@H]4O[C@H](C)[C@@H]5OC(c6ccccc6)O[C@@H]5[C@H]4O[C@H]4O[C@H](C)[C@H](O)[C@H](OC)[C@H]4O)c3c3oc(=O)c4c(C)ccc5oc(=O)c2c3c54)c1` (stereo partly shown) [compound 193], the response vs control in vivo at 10 mg/kg in the data set on P-388 leukemia cells (dose a: 10 mg/kg × 3, i.v. on days 1, 5 and 9) was determined as 162%. Moreover, in data set [1], the LD50 is at least 40 mg/kg.

Take `CO[C@H]1[C@@H](O)[C@@H](C)O[C@H](O[C@H]2[C@H](Oc3cccc4c(OC(=O)c5ccc(Cl)cc5)c5c(=O)oc6ccc(C)c7c(=O)oc(c34)c5c67)O[C@H](C)[C@@H]3OC(c4ccccc4)O[C@@H]32)[C@@H]1O` (stereo partly shown) [compound 194]: the response vs control in vivo at 20 mg/kg in the data set on P-388 leukemia cells (dose b: 20 mg/kg × 3, i.v. on days 1, 5 and 9) stood at 130%. Moreover, in the data set on P-388 leukemia cells, the response vs control in vivo at 40 mg/kg is 192%. Besides, the median lethal dose (LD50) in data set [1] is at least 40 mg/kg.

Take `CO[C@H]1[C@@H](O)[C@@H](C)O[C@H](O[C@H]2[C@H](Oc3cccc4c(OC(=O)c5ccc(C(F)(F)F)cc5)c5c(=O)oc6ccc(C)c7c(=O)oc(c34)c5c67)O[C@H](C)[C@@H]3OC(c4ccccc4)O[C@@H]32)[C@@H]1O` (stereo partly shown) [compound 195]: the response vs control in vivo at 40 mg/kg in the data set on P-388 leukemia cells worked out at 165%. The compound further showed an LD50 in data set [1] of at least 40 mg/kg.

In the case of `C=CC(=O)Oc1c2cccc(O[C@@H]3O[C@H](C)[C@@H]4OC(C)(C)O[C@@H]4[C@H]3O[C@H]3O[C@H](C)[C@H](O)[C@H](OC)[C@H]3O)c2c2oc(=O)c3c(C)ccc4oc(=O)c1c2c43` [compound 197], in the data set on P-388 leukemia cells, the response vs control in vivo at 40 mg/kg was 144% and the response vs control in vivo at 80 mg/kg turned out to be 171%. The compound also had an LD50 in data set [1] of at least 80 mg/kg.

Regarding `CO[C@H]1[C@@H](O)[C@@H](C)O[C@H](O[C@H]2[C@H](Oc3cccc4c(OC(=O)C=C(C)C(F)(F)F)c5c(=O)oc6ccc(C)c7c(=O)oc(c34)c5c67)O[C@H](C)[C@@H]3OC(C)(C)O[C@@H]32)[C@@H]1O` [compound 198], the response vs control in vivo at 40 mg/kg in the data set on P-388 leukemia cells was determined as 176%. In data set [1], the LD50 was at least 80 mg/kg.

Consider `CO[C@H]1[C@@H](O)[C@@H](C)O[C@H](O[C@H]2[C@H](Oc3cccc4c(OC(=O)COC(=O)c5ccccc5)c5c(=O)oc6ccc(C)c7c(=O)oc(c34)c5c67)O[C@H](C)[C@@H]3OC(C)(C)O[C@@H]32)[C@@H]1O` [compound 199], for which the response vs control in vivo at 50 mg/kg with P-388 leukemia cells (dose d: 50 mg/kg × 3, i.v. on days 1, 5 and 9) came out at 159%. In data set [1], this compound displayed an LD50 of at least 60 mg/kg.

`C/C=C/C(=O)Oc1c2cccc(O[C@@H]3O[C@H](C)[C@@H]4OC(C)(C)O[C@@H]4[C@H]3O[C@H]3O[C@H](C)[C@H](O)[C@H](OC)[C@H]3O)c2c2oc(=O)c3c(C)ccc4oc(=O)c1c2c43` [compound 200]: the response vs control in vivo at 40 mg/kg in the data set with P-388 leukemia cells was 168%. The same compound returned an LD50 in data set [1] of at least 80 mg/kg.

For the compound `C#CCCC(=O)Oc1c2cccc(O[C@@H]3O[C@H](C)[C@@H]4OC(C)(C)O[C@@H]4[C@H]3O[C@H]3O[C@H](C)[C@H](O)[C@H](OC)[C@H]3O)c2c2oc(=O)c3c(C)ccc4oc(=O)c1c2c43` [compound 201], in the data set on P-388 leukemia cells, the response vs control in vivo at 40 mg/kg was 162%. In addition, the LD50 in data set [1] is at least 60 mg/kg.

Regarding `COC(=O)CCC(=O)Oc1c2cccc(O[C@@H]3O[C@H](C)[C@@H]4OC(C)(C)O[C@@H]4[C@H]3O[C@H]3O[C@H](C)[C@H](O)[C@H](OC)[C@H]3O)c2c2oc(=O)c3c(C)ccc4oc(=O)c1c2c43` [compound 202], the response vs control in vivo at 40 mg/kg in the data set on P-388 leukemia cells was 174%. The compound further returned an LD50 in data set [1] of at least 60 mg/kg.

As for `CO[C@H]1[C@@H](O)[C@@H](C)O[C@H](O[C@H]2[C@H](Oc3cccc4c(OC(=O)CCCCl)c5c(=O)oc6ccc(C)c7c(=O)oc(c34)c5c67)O[C@H](C)[C@@H]3OC(C)(C)O[C@@H]32)[C@@H]1O` [compound 204], the response vs control in vivo at 40 mg/kg in the data set with P-388 leukemia cells worked out at 174%. The same compound showed an LD50 in data set [1] of at least 60 mg/kg.

Turning to `CO[C@H]1[C@@H](O)[C@@H](C)O[C@H](O[C@H]2[C@H](Oc3cccc4c(OC(=O)COc5ccccc5)c5c(=O)oc6ccc(C)c7c(=O)oc(c34)c5c67)O[C@H](C)[C@@H]3OC(C)(C)O[C@@H]32)[C@@H]1O` [compound 205], in the data set on P-388 leukemia cells, the response vs control in vivo at 40 mg/kg came to 153% and the response vs control in vivo at 80 mg/kg was found to be 173%. For the same compound, in data set [1], the LD50 was at least 80 mg/kg.

The record behind these values is patent publication US4760136A, “Chartreusin derivatives and salts thereof” (Ishihara Sangyo Kaisha, Ltd., priority 1984, dated 1988).
